PubChem BioAssay (NCI)
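All cell lines were grown in 96-well plates and treated with compound for 48 hours. GI50 is the concentration that inhibits growth by half. TGI: total growth inhibition.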

Key:
Test in all cases: NCI tumour cell line growth inhibition, 48 h
HS 578T breast = system: HS 578T breast
SW-620 colon = system: SW-620 colon
HCC-2998 colon = system: HCC-2998 colon
NCI-H522 lung = system: NCI-H522 lung
MDA-MB-435 = system: MDA-MB-435
A498 renal = system: A498 renal
MCF7 breast = system: MCF7 breast
SK-OV-3 ovarian = system: SK-OV-3 ovarian
K-562 leukemia = system: K-562 leukemia
HT29 colon = system: HT29 colon
TK-10 renal = system: TK-10 renal
UACC-257 melanoma = system: UACC-257 melanoma
EKVX NSCLC = system: EKVX NSCLC
LOX IMVI melanoma = system: LOX IMVI melanoma
UACC-62 melanoma = system: UACC-62 melanoma
SK-MEL-5 melanoma = system: SK-MEL-5 melanoma
SNB-19 CNS = system: SNB-19 CNS
SF-268 CNS = system: SF-268 CNS
A549 NSCLC = system: A549 NSCLC
SR leukemia = system: SR leukemia
COLO 205 colon = system: COLO 205 colon
KM12 colon = system: KM12 colon
NCI/ADR-RES ovarian = system: NCI/ADR-RES ovarian
SF-295 CNS = system: SF-295 CNS
RXF 393 renal = system: RXF 393 renal
M14 melanoma = system: M14 melanoma
IGROV1 ovarian = system: IGROV1 ovarian
HCT-116 colon = system: HCT-116 colon
U251 CNS = system: U251 CNS
SK-MEL-28 melanoma = system: SK-MEL-28 melanoma
SK-MEL-2 melanoma = system: SK-MEL-2 melanoma
ACHN renal = system: ACHN renal
MALME-3M melanoma = system: MALME-3M melanoma
DU-145 prostate = system: DU-145 prostate
BT-549 breast = system: BT-549 breast
MOLT-4 leukemia = system: MOLT-4 leukemia
SNB-75 CNS = system: SNB-75 CNS
CAKI-1 renal = system: CAKI-1 renal
SF-539 CNS = system: SF-539 CNS
OVCAR-5 ovarian = system: OVCAR-5 ovarian
786-0 renal = system: 786-0 renal
NCI-H23 lung = system: NCI-H23 lung
HOP-62 NSCLC = system: HOP-62 NSCLC
NCI-H460 lung = system: NCI-H460 lung
HCT-15 colon = system: HCT-15 colon
UO-31 renal = system: UO-31 renal
OVCAR-4 ovarian = system: OVCAR-4 ovarian
OVCAR-8 ovarian = system: OVCAR-8 ovarian

Structure (SMILES): CCN(CC)c1ccc2c(c1)Oc1nc(N)c(C#N)c(N)c1C2Sc1ccc(F)cc1 (stereo unspecified)
- GI50 (HS 578T breast): 1610 nM
- TGI (HS 578T breast): 4610 nM
- GI50 (SW-620 colon): 1080 nM
- TGI (SW-620 colon): 2410 nM
- GI50 (HCC-2998 colon): 1730 nM
- TGI (HCC-2998 colon): 3300 nM
- GI50 (NCI-H522 lung): 1800 nM
- TGI (NCI-H522 lung): 3310 nM
- GI50 (MDA-MB-435): 1330 nM
- TGI (MDA-MB-435): 2730 nM
- GI50 (A498 renal): 1930 nM
- TGI (A498 renal): 3910 nM
- GI50 (MCF7 breast): 1000 nM
- TGI (MCF7 breast): 2840 nM
- GI50 (SK-OV-3 ovarian): 2040 nM
- TGI (SK-OV-3 ovarian): 3630 nM
- GI50 (K-562 leukemia): 308 nM
- TGI (K-562 leukemia): > 100000 nM
- GI50 (HT29 colon): 1530 nM
- TGI (HT29 colon): 3320 nM
- GI50 (TK-10 renal): 2690 nM
- TGI (TK-10 renal): 4210 nM
- GI50 (UACC-257 melanoma): 1860 nM
- TGI (UACC-257 melanoma): 3330 nM
- GI50 (EKVX NSCLC): 661 nM
- TGI (EKVX NSCLC): 2060 nM
- GI50 (LOX IMVI melanoma): 433 nM
- TGI (LOX IMVI melanoma): 1530 nM
- GI50 (UACC-62 melanoma): 1630 nM
- TGI (UACC-62 melanoma): 3100 nM
- GI50 (SK-MEL-5 melanoma): 1760 nM
- TGI (SK-MEL-5 melanoma): 3170 nM
- GI50 (SNB-19 CNS): 1410 nM
- TGI (SNB-19 CNS): 2740 nM
- GI50 (SF-268 CNS): 1540 nM
- TGI (SF-268 CNS): 2990 nM
- GI50 (A549 NSCLC): 1790 nM
- TGI (A549 NSCLC): 3340 nM
- GI50 (SR leukemia): 334 nM
- TGI (SR leukemia): > 100000 nM
- GI50 (COLO 205 colon): 1220 nM
- TGI (COLO 205 colon): 2670 nM
- GI50 (KM12 colon): 1210 nM
- TGI (KM12 colon): 2490 nM
- GI50 (NCI/ADR-RES ovarian): 2280 nM
- TGI (NCI/ADR-RES ovarian): 5880 nM
- GI50 (SF-295 CNS): 1700 nM
- TGI (SF-295 CNS): 3160 nM
- GI50 (RXF 393 renal): 1710 nM
- TGI (RXF 393 renal): 3170 nM
- GI50 (M14 melanoma): 1490 nM
- TGI (M14 melanoma): 3010 nM
- GI50 (IGROV1 ovarian): 1050 nM
- TGI (IGROV1 ovarian): 2380 nM
- GI50 (HCT-116 colon): 1140 nM
- TGI (HCT-116 colon): 2660 nM
- GI50 (U251 CNS): 1230 nM
- TGI (U251 CNS): 2560 nM
- GI50 (SK-MEL-28 melanoma): 1520 nM
- TGI (SK-MEL-28 melanoma): 2890 nM
- GI50 (SK-MEL-2 melanoma): 1690 nM
- TGI (SK-MEL-2 melanoma): 3100 nM
- GI50 (ACHN renal): 1500 nM
- TGI (ACHN renal): 2820 nM
- GI50 (MALME-3M melanoma): 1670 nM
- TGI (MALME-3M melanoma): 3090 nM
- GI50 (DU-145 prostate): 1650 nM
- TGI (DU-145 prostate): 3010 nM
- GI50 (BT-549 breast): 1070 nM
- TGI (BT-549 breast): 2310 nM
- GI50 (MOLT-4 leukemia): 315 nM
- TGI (MOLT-4 leukemia): > 100000 nM
- GI50 (SNB-75 CNS): 1490 nM
- TGI (SNB-75 CNS): 2820 nM
- GI50 (CAKI-1 renal): 1550 nM
- TGI (CAKI-1 renal): 2910 nM
- GI50 (SF-539 CNS): 1330 nM
- TGI (SF-539 CNS): 2620 nM
- GI50 (OVCAR-5 ovarian): 1380 nM
- TGI (OVCAR-5 ovarian): 2780 nM
- GI50 (786-0 renal): 1560 nM
- TGI (786-0 renal): 3020 nM
- GI50 (NCI-H23 lung): 1370 nM
- TGI (NCI-H23 lung): 2900 nM
- GI50 (HOP-62 NSCLC): 1830 nM
- TGI (HOP-62 NSCLC): 3420 nM
- GI50 (NCI-H460 lung): 1280 nM
- TGI (NCI-H460 lung): 2750 nM
- GI50 (HCT-15 colon): 984 nM
- TGI (HCT-15 colon): 2450 nM
- GI50 (UO-31 renal): 1120 nM
- TGI (UO-31 renal): 2330 nM
- GI50 (OVCAR-4 ovarian): 1750 nM
- TGI (OVCAR-4 ovarian): 3180 nM
- GI50 (OVCAR-8 ovarian): 1600 nM
- TGI (OVCAR-8 ovarian): 3020 nM
